Assay results: US7964607B2, “Pyrazolo[3,4-d]pyrimidine compounds” (Pfizer Inc., priority 2007, dated 2011)
Read-outs that look alike come from different tables or passages of the source.

Biological target: T1, human recombinant PDE9 enzyme (Homo sapiens, UniProt O76083)
T1 construct: made in house; host or cells: SF-9 insect cells
Assay: Phosphodiesterase 9 (PDE9) inhibitory activity, Scintillation Proximity (SPA) assay
Format: biochemical
Method in brief: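 Scintillation proximity read-out of [3H]cGMP hydrolysis after 30 min at room temperature, with enzyme addition starting the reaction. The enzyme was human recombinant PDE9 expressed in SF-9 cells, titrated to keep substrate turnover at 20% or less. Compound wells held 2% DMSO final, and background was defined with excess PDE inhibitor.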

[1] = human recombinant PDE9 from SF-9 cells, 50 nM [3H]cGMP, room temperature, 30 min, additional compounds Ex. 115-228, read-out: G5678A (U):IC50
[2] = human recombinant PDE9 from SF-9 cells, 50 nM [3H]cGMP, room temperature, 30 min, Examples 3-114, read-out: G5678A (U): IC50

T1 sequence (O76083 whole entry): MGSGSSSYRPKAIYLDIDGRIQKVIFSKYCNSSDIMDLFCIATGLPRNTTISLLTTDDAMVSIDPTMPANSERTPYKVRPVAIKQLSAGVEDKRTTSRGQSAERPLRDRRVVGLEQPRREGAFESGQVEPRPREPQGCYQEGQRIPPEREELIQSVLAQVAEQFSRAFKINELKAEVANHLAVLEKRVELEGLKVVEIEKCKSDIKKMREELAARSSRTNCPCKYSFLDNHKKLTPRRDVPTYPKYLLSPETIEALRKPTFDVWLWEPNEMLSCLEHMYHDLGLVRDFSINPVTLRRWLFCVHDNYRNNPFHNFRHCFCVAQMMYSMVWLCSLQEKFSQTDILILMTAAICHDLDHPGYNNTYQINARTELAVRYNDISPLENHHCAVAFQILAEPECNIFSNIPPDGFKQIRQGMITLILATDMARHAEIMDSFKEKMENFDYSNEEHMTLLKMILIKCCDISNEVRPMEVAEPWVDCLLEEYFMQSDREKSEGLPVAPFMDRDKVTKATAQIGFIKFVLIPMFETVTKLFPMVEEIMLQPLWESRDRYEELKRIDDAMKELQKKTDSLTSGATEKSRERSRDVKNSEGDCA

| SMILES | IC50 [1] [nM] | IC50 [2] [nM] | other results |
| --- | --- | --- | --- |
| C[C@@H]1CN(Cc2cc3ccccc3nn2)C[C@H]1c1nc2c(cnn2C2CCCC2)c(=O)[nH]1 (racemic) [Example 182, 6-[(3,4-trans)-1-(cinnolin-3-ylmethyl)-4-methylpyrrolidin-3-yl]-1-cyclopentyl-1,5-dihydro-4H-pyrazalo[3,4-d]pyrimidin-4-one] | 22.5 | – | – |
| C[C@@H]1CN(c2nccc(C(F)(F)F)n2)C[C@H]1c1nc2c(cnn2C2CCCC2)c(=O)[nH]1 (racemic) [Example 4, 1-cyclopentyl-6-{(3,4-trans)-4-methyl-1-[4-(trifluoromethyl)pyrimidin-2-yl]pyrrolidin-3-yl}-1,5-dihydro-4H-pyrazolo[3,4-d]pyrimidin-4-one] | – | 624 | – |
| C[C@@H]1CN(Cc2cccc(F)c2F)C[C@H]1c1nc2c(cnn2C2CCCC2)c(=O)[nH]1 (racemic) [Example 127, 1-cyclopentyl-6-[(3,4-trans)-1-(2,3-difluorobenzyl)-4-methylpyrrolidin-3-yl]-1,5-dihydro-4H-pyrazolo[3,4-d]pyrimidin-4-one] | 61.7 | – | – |
| Cc1nn(C2CCOCC2)c2nc([C@@H]3CN(Cc4ccccc4)C[C@H]3C)[nH]c(=O)c12 [Example 88, 6-[(3S,4S)-1-benzyl-4-methylpyrrolidin-3-yl]-3-methyl-1-(tetrahydro-2H-pyran-4-yl)-1,5-dihydro-4H-pyrazolo[3,4-d]pyrimidin-4-one] | – | 17.9 | – |
| CC[C@@H]1CN(Cc2cnc(C)cn2)C[C@H]1c1nc2c(cnn2C2CCOCC2)c(=O)[nH]1 [Example 107, 6-{(3S,4S)-4-ethyl-1-[(5-methylpyrazin-2-yl)methyl]pyrrolidin-3-yl}-1-(tetrahydro-2H-pyran-4-yl)-1,5-dihydro-4H-pyrazolo[3,4-d]pyrimidin-4-one] | – | 4.33 | – |
| CCn1ncc2c(=O)[nH]c([C@@H]3CN(Cc4ccccc4)C[C@H]3C)nc21 (racemic) [Example 58, 6-[(3,4-trans)-1-benzyl-4-methylpyrrolidin-3-yl]-1-ethyl-1,5-dihydro-4H-pyrazolo[3,4-d]pyrimidin-4-one] | – | 334 | – |
| Cc1cc(CN2CC(C)C(c3nc4c(cnn4C4CCCC4)c(=O)[nH]3)C2)n(C)n1 (stereo not drawn) [Example 133, 1-cyclopentyl-6-{(3,4-trans)-1-[(1,3-dimethyl-1H-pyrazol-5-yl)methyl]-4-methylpyrrolidin-3-yl}-1,5-dihydro-4H-pyrazolo[3,4-d]pyrimidin-4-one] | 33.7 | – | – |
| C[C@@H]1CN(Cc2ccc3ccccc3n2)C[C@H]1c1nc2c(cnn2C2CCCC2)c(=O)[nH]1 (racemic) [Example 9, 1-cyclopentyl-6-[(3,4-trans)-4-methyl-1-(quinolin-2-ylmethyl)pyrrolidin-3-yl]-1,5-dihydro-4H-pyrazolo[3,4-d]pyrimidin-4-one] | – | 2.84 | – |
| O=c1[nH]c([C@@H]2CN(Cc3ccccc3)C[C@H]2C(F)(F)F)nc2c1cnn2C1CCCC1 (racemic) [Example 35, 6-[(3,4-trans)-1-benzyl-4-(trifluoromethyl)pyrrolidin-3-yl]-1-cyclopentyl-1,5-dihydro-4H-pyrazolo[3,4-d]pyrimidin-4-one] | – | 53.8 | – |
| C[C@@H]1CN(Cc2ccccc2)C[C@H]1c1nc2c(cnn2C2CCOCC2)c(=O)[nH]1 [Example 61, 6-[(3S,4S)-1-benzyl-4-methylpyrrolidin-3-yl]-1-(tetrahydro-2H-pyran-4-yl)-1,5-dihydro-4H-pyrazolo[3,4-d]pyrimidin-4-one] | – | – | IC50: 7.35 nM |
| CC(C)n1ncc2c(=O)[nH]c([C@@H]3CN(Cc4cnc5ccccc5c4)C[C@H]3C)nc21 (racemic) [Example 34, 1-isopropyl-6-[(3,4-trans)-4-methyl-1-(quinolin-3-ylmethyl)pyrrolidin-3-yl]-1,5-dihydro-4H-pyrazolo[3,4-d]pyrimidin-4-one] | – | 4.33 | – |
| C[C@@H]1CN(Cc2cnn3c2CCCC3)C[C@H]1c1nc2c(cnn2C2CCCC2)c(=O)[nH]1 (racemic) [Example 121, 1-cyclopentyl-6-[(3,4-trans)-4-methyl-1-(4,5,6,7-tetrahydropyrazolo[1,5-a]pyridin-3-ylmethyl)pyrrolidin-3-yl]-1,5-dihydro-4H-pyrazolo[3,4-d]pyrimidin-4-one] | 83.9 | – | – |
| C[C@@H]1CN(Cc2cccc3ccccc23)C[C@H]1c1nc2c(cnn2C2CCCC2)c(=O)[nH]1 (racemic) [Example 142, 1-cyclopentyl-6-[(3,4-trans)-4-methyl-1-(1-naphthylmethyl)pyrrolidin-3-yl]-1,5-dihydro-4H-pyrazolo[3,4-d]pyrimidin-4-one] | 47.5 | – | – |
| C[C@@H]1CN(c2ncccn2)C[C@H]1c1nc2c(cnn2C2CCCC2)c(=O)[nH]1 (racemic) [Example 5, 1-cyclopentyl-6-[(3,4-trans)-4-methyl-1-pyrimidin-2-ylpyrrolidin-3-yl]-1,5-dihydro-4H-pyrazolo[3,4-d]pyrimidin-4-one] | – | 558 | – |
| C[C@@H]1CN(Cc2nc3ccccc3n2C)C[C@H]1c1nc2c(cnn2C2CCCC2)c(=O)[nH]1 [Example 49, 1-cyclopentyl-6-{(3S,4S)-4-methyl-1-[(1-methyl-1H-benzimidazol-2-yl)methyl]pyrrolidin-3-yl}-1,5-dihydro-4H-pyrazolo[3,4-d]pyrimidin-4-one] | – | 4.55 | – |
| Cc1ccn2c(CN3C[C@@H](C)[C@H](c4nc5c(cnn5C5CCCC5)c(=O)[nH]4)C3)c(C)nc2c1 (racemic) [Example 186, 1-cyclopentyl-6-{(3,4-trans)-1-[(2,7-dimethylimidazo[1,2-a]pyridin-3-yl)methyl]-4-methylpyrrolidin-3-yl}-1,5-dihydro-4H-pyrazolo[3,4-d]pyrimidin-4-one] | 155 | – | – |
| C[C@@H]1CN(Cc2cc(F)cc(F)c2)C[C@H]1c1nc2c(cnn2C2CCOCC2)c(=O)[nH]1 [Example 90, 6-[(3S,4S)-1-(3,5-difluorobenzyl)-4-methylpyrrolidin-3-yl]-1-(tetrahydro-2H-pyran-4-yl)-1,5-dihydro-4H-pyrazolo[3,4-d]pyrimidin-4-one] | – | 1.41 | – |

Continued, in another order:

| IC50 [1] [nM] | IC50 [2] [nM] | SMILES | other results |
| --- | --- | --- | --- |
| – | 2.68 | C[C@@H]1CN(Cc2cnc3ccccc3c2)C[C@H]1c1nc2c(cnn2C2CCCC2)c(=O)[nH]1 (racemic) [Example 19, 1-cyclopentyl-6-[(3,4-trans)-4-methyl-1-(quinolin-3-ylmethyl)pyrrolidin-3-yl]-1,5-dihydro-4H-pyrazolo[3,4-d]pyrimidin-4-one] | – |
| 48.4 | – | C[C@@H]1CN(Cc2ccccc2Cl)C[C@H]1c1nc2c(cnn2C2CCCC2)c(=O)[nH]1 (racemic) [Example 219, 6-[(3,4-trans)-1-(2-chlorobenzyl)-4-methylpyrrolidin-3-yl]-1-cyclopentyl-1,5-dihydro-4H-pyrazolo[3,4-d]pyrimidin-4-one] | – |
| 50.9 | – | C[C@@H]1CN(Cc2ccc(F)c(Cl)c2)C[C@H]1c1nc2c(cnn2C2CCCC2)c(=O)[nH]1 (racemic) [Example 158, 6-[(3,4-trans)-1-(3-chloro-4-fluorobenzyl)-4-methylpyrrolidin-3-yl]-1-cyclopentyl-1,5-dihydro-4H-pyrazolo[3,4-d]pyrimidin-4-one] | – |
| 68.4 | – | COc1ccc(CN2C[C@@H](C)[C@H](c3nc4c(cnn4C4CCCC4)c(=O)[nH]3)C2)c(OC)c1 (racemic) [Example 206, 1-cyclopentyl-6-[(3,4-trans)-1-(2,4-dimethoxybenzyl)-4-methylpyrrolidin-3-yl]-1,5-dihydro-4H-pyrazolo[3,4-d]pyrimidin-4-one] | – |
| 53.1 | – | COc1cc(CN2C[C@@H](C)[C@H](c3nc4c(cnn4C4CCCC4)c(=O)[nH]3)C2)ccc1C (racemic) [Example 141, 1-cyclopentyl-6-[(3,4-trans)-1-(3-methoxy-4-methylbenzyl)-4-methylpyrrolidin-3-yl]-1,5-dihydro-4H-pyrazolo[3,4-d]pyrimidin-4-one] | – |
| 54.5 | – | C[C@@H]1CN(Cc2ccc3ccccc3c2)C[C@H]1c1nc2c(cnn2C2CCCC2)c(=O)[nH]1 (racemic) [Example 137, 1-cyclopentyl-6-[(3,4-trans)-4-methyl-1-(2-naphthylmethyl)pyrrolidin-3-yl]-1,5-dihydro-4H-pyrazolo[3,4-d]pyrimidin-4-one] | – |
| 43.4 | – | Cc1cccc(CN2C[C@@H](C)[C@H](c3nc4c(cnn4C4CCCC4)c(=O)[nH]3)C2)c1 (racemic) [Example 160, 1-cyclopentyl-6-[(3,4-trans)-4-methyl-1-(3-methylbenzyl)pyrrolidin-3-yl]-1,5-dihydro-4H-pyrazolo[3,4-d]pyrimidin-4-one] | – |
| 62.7 | – | CCOc1ncccc1CN1C[C@@H](C)[C@H](c2nc3c(cnn3C3CCCC3)c(=O)[nH]2)C1 (racemic) [Example 120, 1-cyclopentyl-6-{(3,4-trans)-1-[(2-ethoxypyridin-3-yl)methyl]-4-methylpyrrolidin-3-yl}-1,5-dihydro-4H-pyrazolo[3,4-d]pyrimidin-4-one] | – |
| 11.5 | – | C[C@@H]1CN(Cc2cccc(F)c2)C[C@H]1c1nc2c(cnn2C2CCCC2)c(=O)[nH]1 (racemic) [Example 215, 1-cyclopentyl-6-[(3,4-trans)-1-(3-fluorobenzyl)-4-methylpyrrolidin-3-yl]-1,5-dihydro-4H-pyrazolo[3,4-d]pyrimidin-4-one] | – |
| – | 6.61 | C[C@@H]1CN(Cc2ccc3nccnc3c2)C[C@H]1c1nc2c(cnn2C2CCCC2)c(=O)[nH]1 (racemic) [Example 13, 1-cyclopentyl-6-[(3,4-trans)-4-methyl-1-(quinoxalin-6-ylmethyl)pyrrolidin-3-yl]-1,5-dihydro-4H-pyrazolo[3,4-d]pyrimidin-4-one] | – |
| 23.7 | – | C[C@@H]1CN(Cc2ccnc(C(C)(C)O)c2)C[C@H]1c1nc2c(cnn2C2CCCC2)c(=O)[nH]1 (racemic) [Example 189, 1-cyclopentyl-6-[(3,4-trans)-1-{[2-(1-hydroxy-1-methylethyl)pyridin-4-yl]methyl}-4-methylpyrrolidin-3-yl]-1,5-dihydro-4H-pyrazolo[3,4-d]pyrimidin-4-one] | – |
